Assay results reported in patent US5563037A, “Homogeneous method for assay of double-stranded nucleic acids using fluorescent dyes and kit useful therein” (Johnson & Johnson Clinical Diagnostics, Inc., priority 1995, dated 1996).
“And” between values parts separate entries of the source, which are not always exact repeats. Equal values may be shown once.

Legend:
[1] = biological target: double-stranded nucleic acids; assay: Binding constant (Kb) of fluorescent dye with double-stranded nucleic acids; conditions: Kp from Molecular Probes catalog divided by 55
Description: The fluorescent dyes useful herein are generally defined as unsymmetrical cyanine dyes having a binding constant (Kb) within the range of from about 1×104 to about 5×105 (molar^-1). As used to define Kb, "about" refers to a variance of 10%. The dyes are also water-soluble or water-dispersible so they can bind to the nucleic acids in the aqueous reaction mixture. Depending upon the anions used, the dyes may be dissolved in a water-miscible solvent.
Particularly useful fluorescent dyes are commercially available from Molecular Probes, Inc. having the trade names and Kp values listed in Table I below. However, this invention is not to be construed as limited to the particular Molecular Probes, Inc. dyes listed therein since these are but preferred dyes. The cations of these preferred dyes are also identified below by chemical structure. The compounds can include any suitable divalent anion, or two monovalent anions. Iodide is preferred. [drawing 3]
*The Kb values in the table were calculated by dividing the partitio
coefficient (Kp) reported in the Molecular Probes, Inc. catalog, page 224
by 55, the molarity of water.

[2] = tested on: HIV-I DNA; assay: Example 2: leuco dye color scores of amplified target in pouches; type: biochemical; conditions: dye added prior to amplification
Method: (§1) The method of this invention was compared to an amplification and detection method outside the scope of this invention, which was carried out using YOYO-1 (1 μmolar final concentration), a tetravalent fluorescent dye, in the buffered solution described above. This dye has the following structure: [drawing 4]
Amplification was carried out using self-contained chemical pouches such as those described in U.S. Pat. No. 5,229,297 (Schnipelsky et al). Those pouches contained the capture probe SEQ ID NO:5 attached to particles which were immobilized in a detection channel where reactions can take place.
The pouches were loaded with reagents, as follows:
(§2) The PCR reaction mixture of Example 1 (except the DNA polymerase) was made to a volume of 5472 μl. The resulting mixture was aliquoted into tubes A, B and C (1824 μl each) representing Samples A, B and C, respectively.
(§3) The sample in Tube A was diluted with buffer (220 μl) and subjected to amplification without any fluorescence dye present. The dye was added at the end of amplification for quantitative detection of the resulting products.
(§4) In addition to the PCR reagents, the sample in Tube B contained YOYO-1 fluorescent dye (0.1 μmolar) which had been added prior to amplification (220 μl of a 10 μmolar solution).
(§5) The sample in Tube C also contained YO-PRO-1 fluorescent dye (0.1 μmolar) which had been added prior to amplification (220 μl of a 10 μmolar solution).
(§6) The DNA polymerase (88 μl) and target HIV-I DNA target nucleic acid (220 μl) were then added to each tube, and the contents of the each of the three tubes were used to fill the PCR reagent compartment of eight pouches.
Amplification was carried out using the same procedures as in Example 1. The PCR protocol was similarly carried out for 40 cycles using a thermal cycler as follows:
1) Preheat to denature at 95° C. for 60 seconds,
priming and extension for 40 seconds at 63.5° C., and denaturation for 10 seconds at 95° C., and
3) final denaturation for 60 seconds at 95° C.
(§7) The results of amplification were detected in three ways: (1) color dye scores visually evaluated as 0 (no signal) to 10 (highest signal density), (2) ethidium bromide stained electrophoretic gels, and (3) fluorescence measured on a commercially available Perkin Elmer fluorimeter.
The noted color scores were obtained by using immobilized capture probes in the pouches with which the amplified target hybridized during incubation for 5 minutes at 42° C. The immobilized target was contacted with the conjugate solution (identified above) for 1 minute at 30° C., followed by the wash solution for 1 minute at 55° C. The leuco dye solution was then added at 30° C. and the resulting color signal was observed after two minutes incubation at 30° C. […]

[3] = tested on: HIV-I DNA; assay: Example 2: ethidium bromide stained electrophoretic gels of amplification products; type: biochemical
Method: The method of this invention was compared to an amplification and detection method outside the scope of this invention, which was carried out using YOYO-1 (1 μmolar final concentration), a tetravalent fluorescent dye, in the buffered solution described above. This dye has the following structure: [drawing 4] The PCR reaction mixture of Example 1 (except the DNA polymerase) was made to a volume of 5472 μl. The resulting mixture was aliquoted into tubes A, B and C (1824 μl each) representing Samples A, B and C, respectively. The sample in Tube A was diluted with buffer (220 μl) and subjected to amplification without any fluorescence dye present. The dye was added at the end of amplification for quantitative detection of the resulting products. In addition to the PCR reagents, the sample in Tube B contained YOYO-1 fluorescent dye (0.1 μmolar) which had been added prior to amplification (220 μl of a 10 μmolar solution). The sample in Tube C also contained YO-[…] fluorescent dye (0.1 μmolar) which had been added prior to amplification (220 μl of a 10 μmolar solution). The DNA polymerase (88 μl) and target HIV-I DNA target nucleic acid (220 μl) were then added to each tube, and the contents of the each of the three tubes were used to fill the PCR reagent compartment of eight pouches. Amplification was carried out using the same procedures as in Example 1. […] follows: The results of amplification were detected in three ways: (1) color dye scores visually evaluated as 0 (no signal) to 10 (highest signal density), (2) ethidium bromide stained electrophoretic gels, and (3) fluorescence measured on a commercially available Perkin Elmer fluorimeter. Electrophoresis was carried out using commercially available NuSieve 1.5%/Seakem Agarose 1% gels (modified to 2.5% agarose) and ethidium bromide stain. The samples were applied to the gels in conventional TBE buffer (4 μl/100 μl). Three replicate assays of each sample (A, B and C) were carried out using each detection means. The average result for each detection means was as follows: […]

[4] = tested on: HIV-I DNA; assay: Example 2: fluorescence of amplification products; type: biochemical
Method: as §1, §2, §3, §4, §5, §6
Amplification was carried out using the same procedures as in Example 1. […]
as §7
Three replicate assays of each sample (A, B and C) were carried out using each detection means. The average result for each detection means was as follows:
Fluorescent signal was generated using a Perkin-Elmer LS-5B fluorimeter, at the following wavelengths for both dyes:
Each amplification product mixture was diluted 100× into a solution of each dye (1 μmolar final concentration). Background signals were obtained from a mixture of amplification reagent mixture and each dye.

[5] = tested on: HIV-I DNA; assay: Example 3: fluorescence after amplification with dye; usefulness / PCR inhibition; type: biochemical; conditions: for Fluorescent Signal: amplified samples mixed with YOYO-1 (0.1 μmolar); for usefulness of dye / inhibition of PCR: dye in amplification
Method: The primers used in Example 3 had the following sequences which are complementary to the gag region of HIV-I DNA: Amplification experiments like those of Example 2 were also carried out to evaluate the usefulness of several other conventional fluorescent dye stains. In these assays, primers identified above as SEQ ID NO:3 and SEQ ID NO:4 were used, as well as the probe identified as SEQ ID NO:6. […] Fluorescence was determined as described in Example 2 except that all amplified samples were mixed with a solution of YOYO-1 (0.1 μmolar) to provide a common minimum threshold of signal.

[6] = 60 cycles, in the presence of YOYO-1

Compound	Kd [1]	Fluorescent Signal [5]	usefulness of dye / inhibition of PCR [5]	also measured
C[n+]1c(C=C2C=CN(CCC[N+](C)(C)C)C=C2)oc2ccccc21 [A]	27.8 µM	–	–	–
C[n+]1c(C=C2C=CN(CCC[N+](C)(C)CCC[N+](C)(C)CCCN3C=CC(=Cc4oc5ccccc5[n+]4C)c4ccccc43)c3ccccc32)oc2ccccc21 [YOYO-1]	–	2.18	not useful because they generally inhibited PCR	effect of dye on amplification (color scores) [2]: inhibited amplification; Average Color Score ([2]; leuco dye, 0 (no signal) to 10 (highest signal density), 40 cycles): 0; difference with modified protocol, by gel electrophoresis [3, 6]: not by gel electrophoresis; effect of dye on amplification (gel) ([3]; dye added prior to amplification): stopped amplification; Positive/negative Gel Bands ([3]; dye added prior to amplification, 40 cycles): 5 Negatives out of 5 bands; difference with modified protocol, by fluorescence [4, 6]: small and was detectable by fluorescence; Fluorescence, dye added after amplification (Sample A) ([4]; Sample A, dye added after amplification, replicates, 491/509 nm): 7.1 Fluorescent Units and 6.6 Fluorescent Units and 6.0 Fluorescent Units (2×); Background fluorescence ([4]; amplification reagent mixture and dye, excitation 491 nm, emission 509 nm): 0.09 Fluorescent Units; effect of dye on amplification / overall signal ([4]; comparison of the two dyes (fluorescence)): considerably inhibits the amplification process; Fluorescence, dye present during amplification (Samples B, C) ([4]; dye added prior to amplification, replicates, 491/509 nm): 1.5 Fluorescent Units (3×) and 1.4 Fluorescent Units (2×); nucleic acid staining ([4]; in words): high nucleic acid staining
CN1/C(=C/c2cc[n+](CCC[N+](C)(C)CCC[N+](C)(C)CCC[n+]3ccc(/C=C4\Sc5ccccc5N4C)c4ccccc43)c3ccccc23)Sc2ccccc21.[I-].[I-].[I-].[I-] [TOTO-1, reference compound]	–	2.70	–	–
C[n+]1c(C=CC=C2C=CN(CCC[N+](C)(C)C)c3ccccc32)oc2ccccc21 [F]	16.7 µM	–	–	–
C[n+]1c(C=CC=C2C=CN(CCC[N+](C)(C)C)C=C2)sc2ccccc21 [D]	11.5 µM	–	–	–
C[n+]1c(C=C2C=CN(CCC[N+](C)(C)C)C=C2)sc2ccccc21 [Compound C]	17.2 µM	19.6	useful	–
TOTO-3 [reference compound]	–	8.45	–	Fluorescent signal and its repeatability (in words) ([5]; Table II footnote): high fluorescent signal in one experiment
C[n+]1c(C=CC=C2C=CN(CCC[N+](C)(C)C)c3ccccc32)sc2ccccc21 [Compound H]	9.09 µM	15.5	useful	–
C[n+]1c(C=C2C=CN(CCC[N+](C)(C)C)c3ccccc32)sc2ccccc21 [Compound G]	2.78 µM	8.32	useful	–
